The source of these data is US9579314B2 (priority 2015, dated 2017).

One assay concerns the target Human β2 adrenoceptor (Homo sapiens, UniProt P07550). Conditions: read-out: B2 binding affinity.
The next assay has as its target Human M3 receptor (Homo sapiens, UniProt P20309). Conditions: read-out: M3 binding affinity.

SMILES strings stand for the structures. pIC50: −log10 of the molar value. Bounds are passed on as bounds.

Human M3 receptor, sequence (P20309 whole entry): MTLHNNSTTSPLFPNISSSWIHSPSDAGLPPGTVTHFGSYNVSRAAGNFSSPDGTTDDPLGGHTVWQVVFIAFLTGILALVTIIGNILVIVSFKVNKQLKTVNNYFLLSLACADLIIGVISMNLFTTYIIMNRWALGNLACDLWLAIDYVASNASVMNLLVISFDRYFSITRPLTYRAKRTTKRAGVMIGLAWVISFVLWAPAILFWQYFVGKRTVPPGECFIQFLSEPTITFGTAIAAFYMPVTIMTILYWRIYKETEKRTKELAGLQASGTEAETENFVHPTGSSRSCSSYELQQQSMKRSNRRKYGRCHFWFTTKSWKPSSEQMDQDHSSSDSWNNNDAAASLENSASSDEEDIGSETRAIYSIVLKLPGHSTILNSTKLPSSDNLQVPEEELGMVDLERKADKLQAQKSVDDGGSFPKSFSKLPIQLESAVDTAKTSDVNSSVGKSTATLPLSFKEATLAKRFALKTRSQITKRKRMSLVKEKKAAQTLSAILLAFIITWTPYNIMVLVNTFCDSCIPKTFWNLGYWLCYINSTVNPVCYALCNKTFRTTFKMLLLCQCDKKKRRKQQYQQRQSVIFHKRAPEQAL
Human β2 adrenoceptor, sequence (P07550 whole entry): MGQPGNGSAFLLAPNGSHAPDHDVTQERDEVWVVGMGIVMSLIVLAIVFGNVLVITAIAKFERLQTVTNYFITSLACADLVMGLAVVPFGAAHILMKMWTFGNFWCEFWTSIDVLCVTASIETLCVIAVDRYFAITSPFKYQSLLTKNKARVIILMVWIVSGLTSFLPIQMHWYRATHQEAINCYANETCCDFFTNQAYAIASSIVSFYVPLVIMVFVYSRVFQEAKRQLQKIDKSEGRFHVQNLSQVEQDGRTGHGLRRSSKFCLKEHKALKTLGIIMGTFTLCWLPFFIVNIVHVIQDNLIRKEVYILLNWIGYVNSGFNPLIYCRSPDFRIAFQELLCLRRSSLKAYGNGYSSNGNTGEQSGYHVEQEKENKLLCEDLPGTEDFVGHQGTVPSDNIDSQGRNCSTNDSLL

Turning to `O=C(COc1cccc([C@](O)(C(=O)OCC2CCN(Cc3ccccc3)CC2)c2ccccc2)c1)N[C@H]1CC[C@H](NC(=O)c2ccc(CNC[C@H](O)c3ccc(O)c4[nH]c(=O)ccc34)cc2)CC1` [Compound 62, (1-benzylpiperidin-4-yl)methyl (S)-2-hydroxy-2-(3-(2-(((1R,4S)-4-(4-((((R)-2-hydroxy-2-(8-hydroxy-2-oxo-1,2-dihydroquinolin-5-yl)ethyl)amino)methyl)benzamido)cyclohexyl)amino)-2-oxoethoxy)phenyl)-2-phenylacetate], the pIC50 at Human β2 adrenoceptor and at Human M3 receptor was above 9.52 each time.
`O=C(c1cccc(COc2cccc([C@](O)(C(=O)OCC3CCN(Cc4ccccc4)CC3)c3ccccc3)c2)c1)N(CCCNC[C@H](O)c1ccc(O)c2[nH]c(=O)ccc12)Cc1ccccc1` [Compound 45, (S)-(1-Benzylpiperidin-4-yl)methyl 2-(3-((3-(benzyl(3-(((R)-2-hydroxy-2-(8-hydroxy-2-oxo-1,2-dihydroquinolin-5-yl)ethyl)amino)propyl)carbamoyl)benzyl)oxy)phenyl)-2-hydroxy-2-phenylacetate]: the pIC50 at Human β2 adrenoceptor and at Human M3 receptor was 8.52 to 9.52 in each case.
For `O=C(N[C@H]1C[C@H](NC(=O)c2ccc(COc3cccc([C@](O)(C(=O)OCC4CCN(Cc5ccccc5)CC4)c4ccccc4)c3)cc2)C1)c1ccc(CNC[C@H](O)c2ccc(O)c3[nH]c(=O)ccc23)cc1` [Compound 123, (1-benzylpiperidin-4-yl)methyl (S)-2-hydroxy-2-(3-((4-(((1R,3S)-3-(4-((((R)-2-hydroxy-2-(8-hydroxy-2-oxo-1,2-dihydroquinolin-5-yl)ethyl)amino)methyl)benzamido)cyclobutyl)carbamoyl)benzyl)oxy)phenyl)-2-phenylacetate], the pIC50 on Human β2 adrenoceptor and on Human M3 receptor was 8.52 to 9.52 throughout.
Consider `O=C(NCCCOc1cccc([C@](O)(C(=O)OCC2CCN(Cc3ccccc3)CC2)c2ccccc2)c1)c1ccc(CNC[C@H](O)c2ccc(O)c3[nH]c(=O)ccc23)cn1` [Compound 32K, (S)-(1-benzylpiperidin-4-yl)methyl 2-hydroxy-2-(3-(3-(5-((((R)-2-hydroxy-2-(8-hydroxy-2-oxo-1,2-dihydroquinolin-5-yl)ethyl)amino)methyl)picolinamido)propoxy)phenyl)-2-phenylacetate], for which the pIC50 on Human β2 adrenoceptor is above 9.52; at Human M3 receptor, 8.52 to 9.52.
Consider `O=C(COc1cccc([C@](O)(C(=O)OCC2CCN(Cc3ccccc3)CC2)c2ccccc2)c1)NC1CN(C(=O)c2ccc(CNC[C@H](O)c3ccc(O)c4[nH]c(=O)ccc34)cc2)C1` [Compound 66, (1-benzylpiperidin-4-yl)methyl (S)-2-hydroxy-2-(3-(2-((1-(4-((((R)-2-hydroxy-2-(8-hydroxy-2-oxo-1,2-dihydroquinolin-5-yl)ethyl)amino)methyl)benzoyl)azetidin-3-yl)amino)-2-oxoethoxy)phenyl)-2-phenylacetate], for which the figures for the pIC50 on Human β2 adrenoceptor and on Human M3 receptor were above 9.52 and 8.52 to 9.52, respectively.
Taken in the same sequence, the figures for `O=C(OCC1CCN(Cc2ccccc2)CC1)[C@@](O)(c1ccccc1)c1cccc(OCCCCCCNCC(O)c2ccc(O)c3[nH]c(=O)ccc23)c1` (stereo in doubt) [Compound 27, (R)-(1-benzylpiperidin-4-yl)methyl 2-hydroxy-2-(3-((6-(((R)-2-hydroxy-2-(8-hydroxy-2-oxo-1,2-dihydroquinolin-5-yl)ethyl)amino)hexyl)oxy)phenyl)-2-phenylacetate] were 8.52 to 9.52 and below 8.52.
For the molecule `CC(C)Oc1cc(C(=O)NCCCOc2cccc([C@](O)(C(=O)OCC3CCN(Cc4ccccc4)CC3)c3ccccc3)c2)ccc1CNC[C@H](O)c1ccc(O)c2[nH]c(=O)ccc12` [Compound 32G, (S)-(1-benzylpiperidin-4-yl)methyl 2-hydroxy-2-(3-(3-(4-((((R)-2-hydroxy-2-(8-hydroxy-2-oxo-1,2-dihydroquinolin-5-yl)ethyl)amino)methyl)-3-isopropoxybenzamido)propoxy)phenyl)-2-phenylacetate], the pIC50 on Human β2 adrenoceptor and on Human M3 receptor was 8.52 to 9.52 in each case.
In the case of `O=C(OCC1CCN(Cc2ccccc2)CC1)C(O)(c1cccc(OCCCCCNC[C@H](O)c2ccc(O)c3[nH]c(=O)ccc23)c1)C1CCCCC1` (stereo partly drawn) [Compound 10, (1-benzylpiperidin-4-yl)methyl 2-cyclohexyl-2-hydroxy-2-(3-((5-(((R)-2-hydroxy-2-(8-hydroxy-2-oxo-1,2-dihydroquinolin-5-yl)ethyl)amino)pentyl)oxy)phenyl)acetate], the pIC50 on Human β2 adrenoceptor and on Human M3 receptor was 8.52 to 9.52 throughout.
Consider `O=C(COc1cccc([C@](O)(C(=O)OCC2CCN(Cc3ccccc3)CC2)c2ccccc2)c1)N[C@@H]1CCN(C(=O)c2ccc(CCNC[C@H](O)c3ccc(O)c4[nH]c(=O)ccc34)cc2)C1` [Compound 104, (1-benzylpiperidin-4-yl)methyl (S)-2-hydroxy-2-(3-(2-(((R)-1-(4-(2-(((R)-2-hydroxy-2-(8-hydroxy-2-oxo-1,2-dihydroquinolin-5-yl)ethyl)amino)ethyl)benzoyl)pyrrolidin-3-yl)amino)-2-oxoethoxy)phenyl)-2-phenylacetate], for which the pIC50 at Human β2 adrenoceptor was 8.52 to 9.52; at Human M3 receptor, above 9.52.
Taken in the same sequence, the figures for `O=C(COc1cccc([C@](O)(C(=O)OCC2CCN(Cc3ccccc3)CC2)c2ccccc2)c1)NCC(=O)N1CCC(CNC[C@H](O)c2ccc(O)c3[nH]c(=O)ccc23)CC1` [Compound 150, (1-benzylpiperidin-4-yl)methyl (S)-2-hydroxy-2-(3-(2-((2-(4-((((R)-2-hydroxy-2-(8-hydroxy-2-oxo-1,2-dihydroquinolin-5-yl)ethyl)amino)methyl)piperidin-1-yl)-2-oxoethyl)amino)-2-oxoethoxy)phenyl)-2-phenylacetate] were above 9.52 and above 9.52.
Taken in the same sequence, the figures for `O=C(COc1cccc([C@](O)(C(=O)OCC2CCN(Cc3ccccc3)CC2)c2ccccc2)c1)N1CCC2(CC1)CN(C(=O)c1ccc(CCNC[C@H](O)c3ccc(O)c4[nH]c(=O)ccc34)cc1)C2` [Compound 96, (1-benzylpiperidin-4-yl)methyl (S)-2-hydroxy-2-(3-(2-(2-(4-(2-(((R)-2-hydroxy-2-(8-hydroxy-2-oxo-1,2-dihydroquinolin-5-yl)ethyl)amino)ethyl)benzoyl)-2,7-diazaspiro[3.5]nonan-7-yl)-2-oxoethoxy)phenyl)-2-phenylacetate] were above 9.52 and above 9.52.
Regarding `O=C(OCC1CCN(Cc2ccccc2)CC1)[C@](O)(c1ccccc1)c1cccc(OCCCCCNC[C@H](O)c2ccc(O)c3[nH]c(=O)ccc23)c1` [Compound 13, (S)-(1-Benzylpiperidin-4-yl)methyl 2-hydroxy-2-(3-((5-(((R)-2-hydroxy-2-(8-hydroxy-2-oxo-1,2-dihydroquinolin-5-yl)ethyl)amino)pentyl)oxy)phenyl)-2-phenylacetate], the pIC50 at Human β2 adrenoceptor and at Human M3 receptor was above 9.52 throughout.
For the molecule `O=C(COc1cccc([C@](O)(C(=O)OCC2CCN(Cc3ccccc3)CC2)c2ccccc2)c1)N[C@@H]1CCCN(C(=O)c2ccc(CNC[C@H](O)c3ccc(O)c4[nH]c(=O)ccc34)cc2)C1` [Compound 71, (1-benzylpiperidin-4-yl)methyl (S)-2-hydroxy-2-(3-(2-(((R)-1-(4-((((R)-2-hydroxy-2-(8-hydroxy-2-oxo-1,2-dihydroquinolin-5-yl)ethyl)amino)methyl)benzoyl)piperidin-3-yl)amino)-2-oxoethoxy)phenyl)-2-phenylacetate], the pIC50 is below 8.52 at Human β2 adrenoceptor and 8.52 to 9.52 on Human M3 receptor.
